In the experiment the target is SIK2 (Homo sapiens (Human), UniProt Q9H0K1). Briefly: SIK2 Enzymatic Assay Version 2 (High ATP). The format is biochemical. The conditions noted are these: 3 mM ATP and 200 μM HDAC5tide final, ADP-Glo Max luminescence. Put shortly:
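Run at room temperature; SIK2 enzyme at 6 nM (2× final) preincubated with compound 30 min before reaction. ADP formation detected by ADP-Glo Max (2 h reagent, 1 h detection) with luminescence read-out.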
For orientation: In ADP-Glo the light output rises with the ADP produced.

SMILES strings stand for the structures. Bounds are passed on as bounds.

These results are taken from US20240174662A1, “SMALL MOLECULE INHIBITORS OF SALT INDUCIBLE KINASES” (Janssen Biotech, Inc., priority 2021, published 2024).

Usually IC50 stands for the concentration that inhibits the measured activity by half. Low readings indicate greater potency, high ones weaker potency.

Chain of SIK2 (Q9H0K1 whole entry, species assumed): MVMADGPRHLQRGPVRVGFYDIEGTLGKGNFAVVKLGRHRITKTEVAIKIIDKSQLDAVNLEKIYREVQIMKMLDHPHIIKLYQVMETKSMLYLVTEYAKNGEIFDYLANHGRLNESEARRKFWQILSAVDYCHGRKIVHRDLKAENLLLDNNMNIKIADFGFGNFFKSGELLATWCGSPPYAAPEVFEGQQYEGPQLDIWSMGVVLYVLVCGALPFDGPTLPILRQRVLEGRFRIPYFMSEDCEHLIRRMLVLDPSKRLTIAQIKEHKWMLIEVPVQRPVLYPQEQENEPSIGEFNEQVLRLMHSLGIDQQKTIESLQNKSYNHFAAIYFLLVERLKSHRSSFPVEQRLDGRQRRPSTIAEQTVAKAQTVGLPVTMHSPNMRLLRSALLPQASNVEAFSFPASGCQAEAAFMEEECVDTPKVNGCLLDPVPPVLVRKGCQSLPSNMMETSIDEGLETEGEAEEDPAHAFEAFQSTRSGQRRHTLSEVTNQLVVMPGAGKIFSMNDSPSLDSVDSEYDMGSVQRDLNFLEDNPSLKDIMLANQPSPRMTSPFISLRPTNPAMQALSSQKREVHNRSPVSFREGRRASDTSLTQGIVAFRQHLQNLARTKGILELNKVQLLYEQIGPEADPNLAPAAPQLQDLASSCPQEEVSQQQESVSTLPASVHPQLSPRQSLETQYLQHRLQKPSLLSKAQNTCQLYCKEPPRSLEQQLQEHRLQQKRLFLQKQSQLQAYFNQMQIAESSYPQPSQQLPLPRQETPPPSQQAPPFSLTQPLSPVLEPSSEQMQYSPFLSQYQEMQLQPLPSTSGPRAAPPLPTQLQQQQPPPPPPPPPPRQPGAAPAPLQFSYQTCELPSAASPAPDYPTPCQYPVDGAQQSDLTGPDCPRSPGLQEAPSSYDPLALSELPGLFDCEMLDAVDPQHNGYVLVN

For `Cc1onc(OC[C@H](c2ccccc2)N(C)C)c1-c1ccn2nc(NC(=O)C3CC3)cc2c1` [Example 207, N-[5-[3-[(2S)-2-(dimethylamino)-2-phenyl-ethoxy]-5-methyl-isoxazol-4-yl]pyrazolo[1,5-a]pyridin-2-yl]cyclopropanecarboxamide], the IC50 came out at 7.6 nM. Compound `CCN1CC[C@@H]1COc1cnn(C)c1-c1ccn2nc(Nc3ncc(F)cn3)cc2c1` [Example 176, (R)-5-(4-((1-ethylazetidin-2-yl)methoxy)-1-methyl-1H-pyrazol-5-yl)-N-(5-fluoropyrimidin-2-yl)pyrazolo[1,5-a]pyridin-2-amine] gave an IC50 of 72.7 nM. Compound `CN1CCO[C@@H](COc2cnn(C)c2-c2ccn3nc(NC(=O)C4CC4)cc3c2)C1` [Example 333, N-[5-[2-methyl-4-[[(2R)-4-methylmorpholin-2-yl]methoxy]pyrazol-3-yl]pyrazolo[1,5-a]pyridin-2-yl]cyclopropanecarboxamide] showed an IC50 of 54 nM. Regarding `Cc1onc(O[C@H]2CCNC2)c1-c1ccn2nc(NC(=O)C3CC3)cc2c1` [Example 75, N-[5-[5-methyl-3-[(3S)-pyrrolidin-3-yl]oxy-isoxazol-4-yl]pyrazolo[1,5-a]pyridin-2-yl]cyclopropanecarboxamide], the IC50 came to 35 nM. In the case of `Cc1nc(Nc2cc3cc(-c4c(OC[C@H]5CCN5C)cnn4C)ccn3n2)cc(C(=O)N(C)C)n1` [Example 108, N,N,2-trimethyl-6-[[5-[2-methyl-4-[[(2R)-1-methylazetidin-2-yl]methoxy]pyrazol-3-yl]pyrazolo[1,5-a]pyridin-2-yl]amino]pyrimidine-4-carboxamide], inhibition was half-maximal at 3.3 nM (IC50). `C[C@H]1CN(C)C[C@H]1OCc1cnn(C)c1-c1ccn2nc(NC(=O)C3CC3)cc2c1` (single isomer, unassigned) [Example 195, (3*S,4*S)—N-[5-[4-[(1,4-dimethylpyrrolidin-3-yl)oxymethyl]-2-methyl-pyrazol-3-yl]pyrazolo[1,5-a]pyridin-2-yl]cyclopropanecarboxamide] had an IC50 of 3.5 nM. As to `CN1CC[C@@H]1COc1cnn(C)c1-c1ccn2nc(NC(=O)[C@@H]3C[C@@H]3F)cc2c1` [Example 69, (1S,2S)-2-fluoro-N-[5-[2-methyl-4-[[(2R)-1-methylazetidin-2-yl]methoxy]pyrazol-3-yl]pyrazolo[1,5-a]pyridin-2-yl]cyclopropanecarboxamide], the IC50 was 30.3 nM.

`Cc1cc(Nc2cc3cc(-c4c(CO[C@@H]5CN(C)C[C@H]5C)cnn4C)ccn3n2)nc(C)n1` (relative stereo) [Example 365, Trans-*R, *S—N-(2,6-dimethylpyrimidin-4-yl)-5-[4-[(1,4-dimethylpyrrolidin-3-yl)oxymethyl]-2-methyl-pyrazol-3-yl]pyrazolo[1,5-a]pyridin-2-amine] registered an IC50 of 1.3 nM. `CO[C@H]1CNC[C@H]1Oc1noc(C)c1-c1ccn2nc(Nc3cc(C)nc(C)n3)cc2c1` [Example 94, N-(2,6-dimethylpyrimidin-4-yl)-5-[3-[(3R,4S)-4-methoxypyrrolidin-3-yl]oxy-5-methyl-isoxazol-4-yl]pyrazolo[1,5-a]pyridin-2-amine] displayed an IC50 of 10.3 nM. Compound `Cc1cncc(Nc2cc3cc(-c4c(OC[C@H]5CCN5C)cnn4C)ccn3n2)n1` [Example 46, 5-[2-methyl-4-[[(2R)-1-methylazetidin-2-yl]methoxy]pyrazol-3-yl]-N-(6-methylpyrazin-2-yl)pyrazolo[1,5-a]pyridin-2-amine] yielded an IC50 of 2.5 nM.

`CN1CC2(CCOCC2)[C@@H]1COc1cnn(C)c1-c1ccn2nc(NC(=O)C3CC3)cc2c1` (single isomer, unassigned) [Example 58, (*R)—N-(5-(1-methyl-4-((2-methyl-7-oxa-2-azaspiro[3.5]nonan-1-yl)methoxy)-1H-pyrazol-5-yl)pyrazolo[1,5-a]pyridin-2-yl)cyclopropanecarboxamide]: half-maximal inhibition (IC50) was put at 57.8 nM. `COC1CNC[C@@H]1Oc1noc(C)c1-c1ccn2nc(NC(=O)C3CC3)cc2c1` (single isomer, unassigned) [Example 202, N-(5-(3-(((3*S,4*R)-4-methoxypyrrolidin-3-yl)oxy)-5-methylisoxazol-4-yl)pyrazolo[1,5-a]pyridin-2-yl)cyclopropanecarboxamide] gave an IC50 of 12.3 nM. Consider `Cc1onc(OCC2(F)CNC2)c1-c1ccn2nc(NC(=O)C3CC3)cc2c1` [Example 83, N-[5-[3-[(3-fluoroazetidin-3-yl)methoxy]-5-methyl-isoxazol-4-yl]pyrazolo[1,5-a]pyridin-2-yl]cyclopropanecarboxamide], for which half-maximal inhibition (IC50) required 10.9 nM. `CN1CC2(CC2)C1COc1cnn(C)c1-c1ccn2nc(NC(=O)C3CC3)cc2c1` (racemic) [Example 51, (rac)-N-[5-[2-methyl-4-[(5-methyl-5-azaspiro[2.3]hexan-6-yl)methoxy]pyrazol-3-yl]pyrazolo[1,5-a]pyridin-2-yl]cyclopropanecarboxamide] had a 50% inhibitory concentration (IC50) of 47 nM. The compound `CCc1cc(Nc2cc3cc(-c4c(OC[C@H]5CCN5CC)cnn4C)ccn3n2)nc(C)n1` [Example 172, 5-[4-[[(2R)-1-ethylazetidin-2-yl]methoxy]-2-methyl-pyrazol-3-yl]-N-(6-ethyl-2-methyl-pyrimidin-4-yl)pyrazolo[1,5-a]pyridin-2-amine] came in with an IC50 of under 0.847 nM. The result for `Cn1ncc(OC[C@H]2CCN2CC2CC2)c1-c1ccn2nc(NC(=O)C3CC3)cc2c1` [Example 247, N-[5-[4-[[(2R)-1-(cyclopropylmethyl)azetidin-2-yl]methoxy]-2-methyl-pyrazol-3-yl]pyrazolo[1,5-a]pyridin-2-yl]cyclopropanecarboxamide] reads 2.7 nM; that for `Cc1onc(O[C@@H]2CCNC[C@@H]2F)c1-c1ccn2nc(NC(=O)C3CC3)cc2c1` (racemic) [Example 211, (rac-cis)-N-[5-[3-[(3-fluoro-4-piperidyl)oxy]-5-methyl-isoxazol-4-yl]pyrazolo[1,5-a]pyridin-2-yl]cyclopropanecarboxamide], 32.5 nM; that for `Cc1nccc(Nc2cc3cc(-c4c(OC[C@H]5CCN5C)cnn4C)ccn3n2)n1` [Example 64, 5-[2-methyl-4-[[(2R)-1-methylazetidin-2-yl]methoxy]pyrazol-3-yl]-N-(2-methylpyrimidin-4-yl)pyrazolo[1,5-a]pyridin-2-amine], 2 nM. On to `Cn1ncc(O[C@H]2C[C@H]3COC[C@@H](C2)N3)c1-c1ccn2nc(NC(=O)C3CC3)cc2c1` [Example 313, N-[5-[2-methyl-4-[[(1R,5S)-3-oxa-9-azabicyclo[3.3.1]nonan-7-yl]oxy]pyrazol-3-yl]pyrazolo[1,5-a]pyridin-2-yl]cyclopropanecarboxamide], for which the IC50 is 29.6 nM.

As to `Cc1ncc(Nc2cc3cc(-c4c(OC[C@@H]5CCN5C)cnn4C)ccn3n2)nc1C` [Example 138, N-(5,6-dimethylpyrazin-2-yl)-5-[2-methyl-4-[[(2S)-1-methylazetidin-2-yl]methoxy]pyrazol-3-yl]pyrazolo[1,5-a]pyridin-2-amine], the IC50 is 40.3 nM. Compound `C[C@@H]1CN(C)C[C@@H]1Oc1cnn(C)c1-c1ccn2nc(NC(=O)C3CC3)cc2c1` (single isomer, unassigned) [Example 418, (3*R,4*R)—N-[5-[4-(1,4-dimethylpyrrolidin-3-yl)oxy-2-methyl-pyrazol-3-yl]pyrazolo[1,5-a]pyridin-2-yl]cyclopropanecarboxamide] yielded an IC50 of 102 nM.

In turn, `CO[C@@H]1CN(C)C[C@@H]1Oc1noc(C)c1-c1ccn2nc(NC(=O)C3CC3)cc2c1` (relative stereo) [Example 317, *S, *R—N-[5-[3-(4-methoxy-1-methyl-pyrrolidin-3-yl)oxy-5-methyl-isoxazol-4-yl]pyrazolo[1,5-a]pyridin-2-yl]cyclopropanecarboxamide] registered an IC50 of 67.8 nM. Take `CN1CC[C@@H]1COc1cnn(C)c1-c1ccn2nc(NC(=O)C3CC3(F)F)cc2c1` (stereo partly drawn) [Example 72, 2,2-difluoro-N-[5-[2-methyl-4-[[(2R)-1-methylazetidin-2-yl]methoxy]pyrazol-3-yl]pyrazolo[1,5-a]pyridin-2-yl]cyclopropanecarboxamide]: 52.1 nM corresponded to half-maximal inhibition (IC50). Regarding `Cc1cc(Nc2cc3cc(-c4c(OC[C@@H](O)C5(C)CC5)cnn4C)ccn3n2)nc(C)n1` [Example 301, (1S)-2-[5-[2-[(2,6-dimethylpyrimidin-4-yl)amino]pyrazolo[1,5-a]pyridin-5-yl]-1-methyl-pyrazol-4-yl]oxy-1-(1-methylcyclopropyl)ethanol], the IC50 stood at 15.2 nM. As for `CN1CC[C@H](OCc2cnn(C)c2-c2ccn3nc(NC(=O)C4CC4)cc3c2)C1` [Example 464, N-[5-[2-methyl-4-[[(3S)-1-methylpyrrolidin-3-yl]oxymethyl]pyrazol-3-yl]pyrazolo[1,5-a]pyridin-2-yl]cyclopropanecarboxamide], the IC50 was 82.8 nM.

Take `Cn1ncc(OC2CNC2)c1-c1ccn2nc(NC(=O)C3CC3)cc2c1` [Example 397, N-[5-[4-(azetidin-3-yloxy)-2-methyl-pyrazol-3-yl]pyrazolo[1,5-a]pyridin-2-yl]cyclopropanecarboxamide]: the IC50 stood at 128 nM. `CN1CC[C@@H]1COc1cnn(C)c1-c1ccn2nc(Nc3cn(C)nn3)cc2c1` [Example 124, 5-[2-methyl-4-[[(2R)-1-methylazetidin-2-yl]methoxy]pyrazol-3-yl]-N-(1-methyltriazol-4-yl)pyrazolo[1,5-a]pyridin-2-amine]: it took 14.9 nM to reach half-maximal inhibition (IC50). `Cc1cnnc(Nc2cc3cc(-c4c(OC[C@H]5CCN5C)cnn4C)ccn3n2)c1` [Example 141, 5-[2-methyl-4-[[(2R)-1-methylazetidin-2-yl]methoxy]pyrazol-3-yl]-N-(5-methylpyridazin-3-yl)pyrazolo[1,5-a]pyridin-2-amine] returned an IC50 of 1 nM. For `COC1(COc2noc(C)c2-c2ccn3nc(NC(=O)C4CC4)cc3c2)CN(C)C1` [Example 29, N-[5-[3-[(3-methoxy-1-methyl-azetidin-3-yl)methoxy]-5-methyl-isoxazol-4-yl]pyrazolo[1,5-a]pyridin-2-yl]cyclopropanecarboxamide], the IC50 worked out at 360 nM.
